From patent publication US7153869B2, “Substituted amino acids as erythropoietin mimetics” (priority 1998, dated 2006) come the findings set out here.

SMILES strings stand for the structures. Like-named read-outs stand apart in the source and are kept apart here.

This assay deals with T1, EBP-Ig (N-terminal 225 amino acids of the human EPO receptor joined to an Ig heavy chain) (Homo sapiens, UniProt P19235).
T1 construct: Ig heavy chain (fusion partner); made in house; host or cells: NSO cells (secreted into conditioned media)
T1 sequence (P19235 25-250 limits assumed): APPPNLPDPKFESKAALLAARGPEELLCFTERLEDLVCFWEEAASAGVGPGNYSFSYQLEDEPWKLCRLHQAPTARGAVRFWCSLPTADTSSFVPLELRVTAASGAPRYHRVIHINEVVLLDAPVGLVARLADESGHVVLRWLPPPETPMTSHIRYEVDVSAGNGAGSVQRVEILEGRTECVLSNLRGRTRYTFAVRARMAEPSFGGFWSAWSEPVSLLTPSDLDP
The assay can be described thus: Inhibition of [125I]EPO binding to immobilized EBP-Ig (EPO binding protein-Ig), scintillation Flash plate competition assay. From the text: The interaction of biotin and streptavidin is frequently employed to capture and effectively immobilize reagents useful in assay protocols and has been employed here as a simple method to capture and immobilize EBP-Ig. EBP-Ig is initially randomly modified with an amine reactive derivative of biotin to produce biotinylated-EBP-Ig. Use of streptavidin coated plates allows the capture of the biotinylated EBP-Ig on the surface of a scintillant impregnated coated well (Flash plates, NEN-DuPont). […] The amount of light produced was quantified to estimate the amount of ligand binding. The specific assay format was suitable for the multi-well plate capacity of a Packard TopCount Microplate Scintillation counter.
Biotinylated EBP-Ig was prepared as follows. EBP-Ig (3 mL, OD280 2.9) was exchanged into 50 mM sodium bicarbonate, pH 8.5 using a Centriprep 10 ultrafiltration device. The final volume of the exchanged protein was 1.2 mL (OD280 2.6, representing about 2 mg total protein). 10 μL of a 4 mg/ml solution of NHS-LC-Biotin (Pierce) was added and the reaction mixture placed on ice in the dark for two hours. Unreacted biotin was removed by exchange of the reaction buffer into PBS in a Centriprep 10 device and the protein reagent aliquoted and stored at −70° C.
All wells were adjusted to a final DMSO concentration of 5%. […] After all additions were made, the plate was covered with an adhesive top seal and placed in the dark at room temperature overnight. The next day all liquid was aspirated from the wells to limit analyte dependent quench of the signal, and the plates were counted on a Packard TOPCOUNT Microplate Scintillation Counter. […] Corrected total binding (CTB) was calculated as: TB−NSB=CTB. […] Table 1 lists the average % inhibition, and if determined the IC50 and IC30 values for compounds of Formula I, where the compound numbers refer to the compounds in the tables accompanying the preparative examples.

With `COc1ccc(CCNC(=O)C(CCCCNC(=O)Nc2ccc(Oc3ccccc3)cc2)N(C/C=C/c2ccccc2)C/C=C/c2ccccc2)cc1` (centres unmarked) [compound 229], under “50 μM compound, Table 10”, the “EPO/EBP-Ig % inh @ 50 μM” value is given as 22%.
Regarding `COC(=O)[C@H](CO)NC/C=C/c1cccc(Oc2ccc(C(C)(C)C)cc2)c1.O=C(O)C(F)(F)F` [compound 343], under “50 μM compound, Table 20A”, the “EPO/EBP-Ig % inh @ 50 μM” value is listed as 37%.
`COC(=O)C(CCC(=O)OC(C)(C)C)N(C/C=C/c1cccc2ccccc12)C/C=C/c1cccc2ccccc12` (centres unmarked) [compound 95]: under “Table 6, 50 μM”, the “EPO/EBP-Ig % inh @ 50 μM” value turned out to be 15%.
Regarding `Cc1ccccc1CNc1cccc(CN(Cc2cccc(Oc3ccccc3)c2)C(CC(=O)O)C(=O)O)c1` (centres unmarked) [compound 69], the “EPO/EBP-Ig % inh @ 50 μM” value (Table 4, 50 μM) is reported as −13%.
With `COC(=O)C(CCCCNC(=O)OC(C)(C)C)N(Cc1ccc(OCc2ccccc2)cc1)Cc1cccc([N+](=O)[O-])c1` (centres unmarked) [cpd 113, N-(4-Benzyloxybenzyl)-N-(3-nitrobenzyl)Lys(Boc)-OMe], the “EPO/EBP-Ig % inh @ 50 μM” value (Table 7, 50 μM) was 24%.
For `O=C(O)CCC(C(=O)O)N(C/C=C/c1ccc(NC(=O)Oc2ccccc2)cc1)Cc1ccc(OCc2ccccc2)cc1` (centres unmarked) [compound 89], where the note is “Table 5, 50 μM”, the “EPO/EBP-Ig % inh @ 50 μM” value came out at 22%.
For `CCOC(=O)c1ccc(NC(=O)NCCCCC(C(=O)NCCc2ccc(OC)cc2)N(C/C=C/c2ccccc2)C/C=C/c2ccccc2)cc1` (centres unmarked) [compound 231], where the note is “50 μM compound, Table 10”, the “EPO/EBP-Ig % inh @ 50 μM” value is 36%. Moreover, the “% inh @ 50 μM (Inhibition of EPO binding to EBP-Ig)” value (50 μM test compound, 0.5 nM [125I]EPO, average % inhibition) is on record as 36%.
Regarding `COC(=O)C(CCCCN)N(Cc1ccc(OCc2ccccc2)cc1)Cc1ccc(OCc2ccccc2)cc1` (centres unmarked) [compound 110], under “0.5 nM [125I]EPO, 0–500 μM test compound”, the “IC30 μM (Inhibition of EPO binding to EBP-Ig)” value was determined as 6 µM. The inhibition at 50 µM amounted to 54% (read-out: % inh @ 50 μM (Inhibition of EPO binding to EBP-Ig)) and 54% (read-out: EPO/EBP-Ig % inh @ 50 μM, Table 7, 50 μM).
As for `COC(=O)C(CCC(=O)OC(C)(C)C)N(CC=Cc1cccc(Oc2ccccc2)c1)CC=Cc1cccc(Oc2ccccc2)c1` (centres unmarked) [cpd 96, N,N-bis(3-Phenoxycinnamyl)Glu(O-t-Bu)-OMe], the “EPO/EBP-Ig % inh @ 50 μM” value (Table 6, 50 μM) is listed as −5%.
Turning to `COC(=O)C(COC(C)(C)C)NCC=Cc1cccc(Oc2ccccc2)c1` (centres unmarked) [cpd 352, N-(3-phenoxycinnamyl)Ser(t-Bu)-OMe], the “EPO/EBP-Ig % inh @ 50 μM” value (50 μM compound, Table 20A) turned out to be 8%.
As for `COC(=O)[C@H](COC(C)(C)C)NC/C=C/c1cccc(Oc2ccc(Cl)c(Cl)c2)c1` [compound 354], under “50 μM compound, Table 20A”, the “EPO/EBP-Ig % inh @ 50 μM” value stood at 31%.
As to `COC(=O)[C@H](CO)NC/C=C/c1cccc(Oc2ccc(Cl)c(Cl)c2)c1.O=C(O)C(F)(F)F` [compound 345], under “50 μM compound, Table 20A”, the “EPO/EBP-Ig % inh @ 50 μM” value is 40%.
As to `CC(C)(C)OC(=O)CC[C@H](NC/C=C/c1cccc(Oc2cccc(C(F)(F)F)c2)c1)C(=O)OC(C)(C)C` [compound 338], the “EPO/EBP-Ig % inh @ 50 μM” value (50 μM compound, Table 19A) was 23%.
Consider `CC(=O)O.COC(=O)[C@H](CO)N(C/C=C/c1ccccc1)C/C=C/c1ccccc1` [compound 310], for which, under “50 μM compound, Table 16A”, the “EPO/EBP-Ig % inh @ 50 μM” value is recorded as 34%.
Consider `CC(C)(C)OC(=O)CC(C(=O)NCCCOCCCCOCCCNC(=O)C(CC(=O)OC(C)(C)C)N(C/C=C/c1cccc(Oc2ccc(C(C)(C)C)cc2)c1)C/C=C/c1cccc(Oc2ccc(C(C)(C)C)cc2)c1)N(C/C=C/c1cccc(Oc2ccc(C(C)(C)C)cc2)c1)C/C=C/c1cccc(Oc2ccc(C(C)(C)C)cc2)c1` (centres unmarked) [compound 252], for which the “EPO/EBP-Ig % inh @ 50 μM” value (50 μM compound, Table 12) is recorded as −4%.
In the case of `COC(=O)C(CCCCNC(=O)OCc1ccccc1)N(C/C=C/c1cccc(Oc2ccccc2)c1)C/C=C/c1cccc(Oc2ccccc2)c1` (centres unmarked) [compound 176], the “EPO/EBP-Ig % inh @ 50 μM” value (50 μM compound, Table 9) is listed as −4%.
Consider `CCCCNC(=O)C(CCCCNC(=O)c1ccccc1)N(C/C=C/c1ccccc1)C/C=C/c1ccccc1` (centres unmarked) [compound 208], for which the “EPO/EBP-Ig % inh @ 50 μM” value (50 μM compound, Table 10) was found to be 22%.
Same read-out and setting: for `COc1ccc(CCNC(=O)C(CCCCNC(=O)Nc2ccccc2)N(C/C=C/c2cccc(Oc3ccccc3)c2)C/C=C/c2cccc(Oc3ccccc3)c2)cc1` (centres unmarked) [compound 228] the value was 21%.
With `CC(C)(C)OC(=O)CC[C@H](NC/C=C/c1cccc(Oc2ccc(C(C)(C)C)cc2)c1)C(=O)OC(C)(C)C` [compound 339], the “EPO/EBP-Ig % inh @ 50 μM” value (50 μM compound, Table 19A) came out at 10%.
As for `CCCCNC(=O)C(CCCCN)N(C/C=C/c1ccccc1)C/C=C/c1ccccc1` (centres unmarked) [compound 205], the “EPO/EBP-Ig % inh @ 50 μM” value (50 μM compound, Table 10) was 26%.
